We go through 5 compounds from patent publication US7429557B2, “Replacement solvents having improved properties and methods of using the same” (Mainstream Engineering Corporation, priority 2005, dated 2008).

Where two headings read alike, the source gives them in different places.

The nature of data set [1]: Coated metal coupon cleaning, gravimetric. To be noted: Krytox, 15 minute immersion, 15 mL. As to the method:
(§1) A sample comprising 25 volume percent (A.) 4-bromo-3-chloro-3,4,4-trifluoro-1-butene and 75 volume percent (B.) 1-chloro-2,2,2-trifluoroethyl difluoromethyl ether was added to several beakers, each containing a metal coupon completely coated with one of the following materials: Mil Spec 83282 hydraulic oil, Mil Spec 7808 engine oil, Krytox fluorocarbon grease and Mil Spec 81322 aviation grease. Two batches were subjected to 15 minute immersion with 15 mL of solvent mixture but one was exposed to ultrasonic vibrations and the other kept static. Afterwards, the coupons were removed and weighed for gravimetric analysis.
as §1, with “50” for “25”, “50” for “75”
(§2) Two batches were subjected to 15 minute immersion with 15 mL of solvent mixture but one was exposed to ultrasonic vibrations and the other kept static. Afterwards, the coupons were removed and weighed for gravimetric analysis.
The compounds (A) 4-bromo-3-chloro-3,4,4-trifluoro-1-butene and (B) 1-chloro-2,2,2-trifluoroethyl difluoromethyl ether, were mixed 50:50 by volume and tested to remove Krytox. The individual components, A and B, remove 17.0% and 98.7%, respectively, of this contaminant after 15 min. with ultrasonic treatment. The mixture removed 99.3% of the same contaminant under the same conditions.

Another data set deals with Chinese hamster. As to the kind of experiment: In vitro genotoxicity. The settings on record: in vitro Chinese hamster oocytes. The text has this: (§3) Skin irritation is also an important consideration for a solvent.
The next data set in a line: Skin irritation. The settings on record: in vivo.
From the text: as §3

A further data set in a line: Ames mutagenicity assay.
From the text: as §3
(In general: In the Ames test, an excess of revertant colonies over the control signals mutagenicity.)

Another data set in a line: LD50. To be noted: in vivo.
From the text: Toxicity is yet another factor which must be considered when selecting second-generation replacement solvents. Parameters such as the lethal dose 50 (LD50), lethal concentration 50 (LC50), cardiac sensitization, skin irritation, and mutagenicity (e.g., via the Ames test) can be used as measures. LDn or LCn abbreviation, where n is the percent lethality, is used for the dose of a toxicant lethal to n % of a test population. […] Cardiac sensitization is a measure of the ability of a compound to cause cardiac arrhythmia under stress.
as §3

Data set [2] is described as follows: Coated metal coupon cleaning, gravimetric. To be noted: 15 minute immersion, 15 mL. The protocol:
as §1
as §1, with “50” for “25”, “50” for “75”
as §2

The conditions of data set [3]: listed; cited from earlier work.

A word on the LD50: it is the dose at which mortality reaches 50%. Read a high LD50 as lower toxicity. In data set [1] (Ultrasonic), `C=CC(F)(Cl)C(F)(F)Br` (stereo not drawn) [A, 4-bromo-3-chloro-3,4,4-trifluoro-1-butene] yielded a percent contaminant removed of 17.0%. Also, in the data set on Chinese hamster, the genotoxicity result is listed as “not genotoxic”. Moreover, the skin irritation result in the data set “Skin irritation” was “moderate to non-irritants”. Moreover, the Ames mutagenicity assay entry in the data set “Ames mutagenicity assay” is given as “negative”. Further, the LD50 in “LD50” is greater than 40000 mg/kg.
Consider `FC(F)(Cl)C(F)(Cl)Cl` [CFC-113, 1,1,2-trichloro-1,2,2-trifluoroethane], for which the percent contaminant removed was 100% in data set [2] (7808 oil, Static); 99.2% in data set [2] (7808 oil, Ultrasonic); 24.1% in data set [2] (81322 grease, Static); 94.8% in data set [2] (81322 grease, Ultrasonic); 100% in data set [2] (83282 oil, Static); 100% in data set [2] (83282 oil, Ultrasonic). Also, the percent contaminant removed in data set [1] (Static) is recorded as 36.2%; in data set [1] (Ultrasonic) it was 97.7%. Besides, in data set [3], the skin irritation result is given as “mild irritant”.
With `FC(F)OC(Cl)C(F)(F)F` (stereo not drawn) [Compound B, 1-chloro-2,2,2 trifluoroethyl difluoromethyl ether], the percent contaminant removed in data set [1] (Ultrasonic) is recorded as 98.7%. The genotoxicity result with Chinese hamster is on record as “not genotoxic”. In “Skin irritation”, the skin irritation result was “moderate to non-irritants”. For the same compound, the Ames mutagenicity assay result in “Ames mutagenicity assay” is listed as “negative”. This compound also gave a 50% lethal dose (LD50) in the data set “LD50” of 8100 mg/kg.
Turning to `FC(F)OC(F)(F)C(F)Cl` (stereo not drawn) [Compound C, 2-chloro-1,1,2-trifluoroethyl difluoromethyl ether], in the data set on Chinese hamster, the genotoxicity result was “not genotoxic”. In addition, the skin irritation result in the data set “Skin irritation” is listed as “moderate to non-irritants”. Further, the Ames mutagenicity assay result in “Ames mutagenicity assay” is “negative”. The compound also registered a median lethal dose (LD50) in the data set “LD50” of 13000 mg/kg.
Taken in the same sequence, the figures for `COC(C(F)(F)F)C(F)(F)F` [E, methyl 2,2,2-trifluoroethyl-1-(trifluoromethyl)ether] were “not genotoxic”, “moderate to non-irritants”, “negative” and greater than 40000 mg/kg.
